Assay results from patent US20220218627A1 (priority 2019, published 2022).

Assays:
acute traumatic pain = conditions: in vivo; cited from earlier work
[1] = tested on: migraine or Cluster headache patients; conditions: in vivo, iv; cited from earlier work
[2] = tested on: pediatric procedural pain; conditions: in vivo; cited from earlier work
[3] = tested on: Cluster headache patients; conditions: human, in vivo
[4] = tested on: major depressive disorder; conditions: in vivo; cited from earlier work
[5] = in vivo; cited from earlier work

CNC1(c2ccccc2Cl)CCCCC1=O (stereo not drawn) [ketamine, 2-(2-chlorophenyl)-2-(methylamino)cyclohexanone]
efficacy in pain treatment compared to morphine IV or IM (acute traumatic pain): equal efficient in pain treatment | hallucinations or out-of-body experience (acute traumatic pain): No patients complained of hallucinations or out of-body experience | side effects (acute traumatic pain): mainly dizziness | time to onset (acute traumatic pain): approx. 15 min | patients complaining of spaciness, fearfulness, jitteriness or lack of personal control [1]: approximately 43% | patients experiencing nausea at some point during treatment [1]: 3.2% | onset of analgesia [2]: rapid onset of analgesia | side effects [2]: only slight sedation | Case 1: number of sprays after which patient reported feeling better [3]: 2-3 sprays | Case 1: side effects (dysphoria, out-of-body) [3]: no side effects | Case 2: cluster headache episode frequency over about a year [3]: beginning to get less frequent | Case 3: long-term course of cluster headache episodes [3]: only had one short cluster headache episode in the last three to four years | Cases 1-3: change from initial baseline on 0 to 10 Visual Analogue Scale (VAS) [3]: above 65% | Cases 1-3: dysphoria or nausea [3]: Increased dysphoria or nausea was not noted | Cases 1-3: out-of-body experiences or hallucinations [3]: No out-off body experiences, or hallucinations were observed | Case 1: outcome of IV treatment on cluster headaches ([3]; iv): complete cessation of the cluster headaches in three days | Case 2: change in cluster headache frequency ([3]; iv): from 5 episodes per day to only one cluster headache in the next week | Case 3: shortening of the duration of the cluster episode ([3]; iv): greater than two-thirds | effect on depressive symptoms [4]: rapid improvement of the depressive symptoms | serious adverse effects [4]: No serious adverse effects occurred | terminal plasma half-life [5]: 2 to 3 h | time to peak plasma concentrations [5]: 10 to 15 min

CCN(CC)CC(=O)Nc1c(C)cccc1C [lidocaine]
Case 3: success in shutting the cluster episode down ([3]; iv): only partial success

CCCC(CCC)C(=O)O [Depacon]
Case 3: success in shutting the cluster episode down ([3]; iv): only partial success
